Assay results as given in patent publication US9439918B2 (priority 2008, dated 2016).
Values after ≈ are worked out from the molar mass of the structure shown. Like-named read-outs stand apart in the source and are kept apart here.

Key:
[1] = test system: intraphagocytic L. pneumophila ATCC 33153; type: cell-based, Legionella pneumophila; settings: for Emax, CFU decrease from original inoculum: 48 h; for Emax, Δ log10 CFU at 24 h compared to the post-phagocytosis inoculum: L.p., intracellular
[2] = test system: Salmonella spp. (20); experiment: MIC, CLSI broth microdilution; type: cell-based; settings: for MIC50 / MIC90: Salmonella; for MIC Range / MIC 50% / MIC 90%: Salmonella spp.; for % by category resistant / % by category susceptible: CLSI 2008 criteria
[3] = test system: intraphagocytic L. monocytogenes EGD; type: cell-based, Listeria monocytogenes; settings: for Emax, CFU decrease from original inoculum: 24 h
[4] = test system: Shigella spp. (40); experiment: MIC, CLSI broth microdilution; type: cell-based; settings: for % by category resistant / % by category susceptible: CLSI 2008 criteria
[5] = test system: H. pylori (23); experiment: MIC, agar dilution / Etest
[6] = test system: staphylococci; experiment: MIC50 against Gram-positive cocci; type: cell-based
[7] = test system: streptococci; experiment: MIC50 against Gram-positive cocci; type: cell-based
[8] = test system: L. pneumophila ATCC 33153; type: cell-based, Legionella pneumophila
[9] = test system: C. jejuni (20); experiment: MIC, agar dilution / Etest; settings: for MIC50 / MIC90: Campylobacter jejuni; for MIC50: read-out: MIC 50% (Etest); for MIC90: read-out: MIC 90% (Etest)
[10] = Helicobacter pylori, read-out: MIC 50% (Etest)
[11] = C. jejuni, 20 strains, agar dilution

CC[C@H]1OC(=O)[C@H](C)[C@@H](O[C@H]2C[C@@](C)(OC)[C@@H](O)[C@H](C)O2)[C@H](C)[C@@H](O[C@@H]2O[C@H](C)C[C@H](N(C)C)[C@H]2O)[C@](C)(O)C[C@@H](C)CN(C)[C@H](C)[C@@H](O)[C@]1(C)O [AZI, azithromycin]
Emax, CFU decrease from original inoculum [1]: −0.83 log10 units | Emax, Δ log10 CFU at 24 h compared to the post-phagocytosis inoculum [1]: −0.83 Δ log10 CFU | MIC50 [2]: 4 µg/mL (≈ 5.34 µM) | MIC90 [2]: 8 µg/mL (≈ 10.7 µM) | MIC Range ([2]; 20 strains): 2 to 8 µg/mL | MIC Range ([2]; 20 strains, listed as AZ): 2-8 (AZ) μg/ml | Emax, Δ log10 CFU at 24 h compared to the post-phagocytosis inoculum [3]: −0.81 Δ log10 CFU | Emax, CFU decrease from original inoculum [3]: −0.81 log10 units | MIC50 ([4]; Shigella spp., 40 strains): 4 µg/mL (≈ 5.34 µM) | MIC90 ([4]; Shigella spp., 40 strains): 8 µg/mL (≈ 10.7 µM)

CC1(C)S[C@@H]2[C@H](NC(=O)[C@H](N)c3ccccc3)C(=O)N2[C@H]1C(=O)O [Ampicillin]
MIC50 [5, 10]: ≤ 0.015 µg/mL

CC[C@H]1OC(=O)[C@@](C)(F)C(=O)[C@H](C)[C@@H](OC2OC(C)CC(N(C)C)C2O)[C@@](C)(OC)C[C@@H](C)C(=O)[C@H](C)[C@H]2N(CCCCn3cc(-c4cccc(N)c4)nn3)C(=O)O[C@]12C (some centres unmarked) [CEM-101, 11-N-4-(3-aminophenyl)-[1,2,3]triazol-1-yl]-butyl-5-desosaminyl-3-oxo-2-fluoro-erythronolide A,-11,12-cyclic carbamate]
MIC50 [6]: 0.06 µg/mL (≈ 0.071 µM) | MIC50 [7]: 0.015 µg/mL (≈ 0.0178 µM) | MIC ([8]; conventional susceptibility testing): 4 ng/mL (≈ 0.00473 µM) | MIC ([8]; pH-adjusted broth, pH 6.5): 10 ng/mL (≈ 0.0118 µM) | MIC ([8]; pH-adjusted broth, pH 7.4): 5 ng/mL (≈ 0.00592 µM) | Emax, CFU decrease from original inoculum [1]: −1.03 log10 units | Emax, Δ log10 CFU at 24 h compared to the post-phagocytosis inoculum [1]: −1.03 Δ log10 CFU | No. of strains at MIC 0.06 ([2]; MIC distribution, 20 strains): 0 | No. of strains at MIC 0.12 ([2]; MIC distribution, 20 strains): 0 | No. of strains at MIC 0.25 ([2]; MIC distribution, 20 strains): 0 | No. of strains at MIC 0.5 ([2]; MIC distribution, 20 strains): 0 | No. of strains at MIC 1 ([2]; MIC distribution, 20 strains): 3 | No. of strains at MIC 2 ([2]; MIC distribution, 20 strains): 4 | No. of strains at MIC 4 ([2]; MIC distribution, 20 strains): 4 | No. of strains at MIC 8 ([2]; MIC distribution, 20 strains): 4 | No. of strains at MIC ≦0.03 ([2]; MIC distribution, 20 strains): 0 | No. of strains at MIC ≧16 ([2]; MIC distribution, 20 strains): 5 | MIC 50% ([2]; 20 strains): 4 µg/mL (≈ 4.73 µM) | MIC 90% ([2]; 20 strains): >16 µg/mL | Emax, Δ log10 CFU at 24 h compared to the post-phagocytosis inoculum [3]: −0.66 Δ log10 CFU | Emax, CFU decrease from original inoculum [3]: −0.66 log10 units | MIC 50% [9, 11]: 1 µg/mL (≈ 1.18 µM) | MIC 90% [9, 11]: 4 µg/mL (≈ 4.73 µM) | No. of strains at MIC 0.06 ([9]; MIC distribution, 20 strains): 0 | No. of strains at MIC 0.12 ([9]; MIC distribution, 20 strains): 0 | No. of strains at MIC 0.25 ([9]; MIC distribution, 20 strains): 0 | No. of strains at MIC 0.5 ([9]; MIC distribution, 20 strains): 0 | No. of strains at MIC 1 ([9]; MIC distribution, 20 strains): 10 | No. of strains at MIC 2 ([9]; MIC distribution, 20 strains): 0 | No. of strains at MIC 4 ([9]; MIC distribution, 20 strains): 8 | No. of strains at MIC 8 ([9]; MIC distribution, 20 strains): 2 | No. of strains at MIC ≦0.03 ([9]; MIC distribution, 20 strains): 0 | No. of strains at MIC ≧16 ([9]; MIC distribution, 20 strains): 0 | No. of strains at MIC 0.06 ([4]; MIC distribution, 40 strains): 0 | No. of strains at MIC 0.12 ([4]; MIC distribution, 40 strains): 0 | No. of strains at MIC 0.25 ([4]; MIC distribution, 40 strains): 0 | No. of strains at MIC 0.5 ([4]; MIC distribution, 40 strains): 0 | No. of strains at MIC 1 ([4]; MIC distribution, 40 strains): 2 | No. of strains at MIC 2 ([4]; MIC distribution, 40 strains): 0 | No. of strains at MIC 4 ([4]; MIC distribution, 40 strains): 14 | No. of strains at MIC 8 ([4]; MIC distribution, 40 strains): 18 | No. of strains at MIC ≦0.03 ([4]; MIC distribution, 40 strains): 0 | No. of strains at MIC ≧16 ([4]; MIC distribution, 40 strains): 6 | MIC 50% ([4]; Shigella spp., 40 strains): 8 µg/mL (≈ 9.47 µM) | MIC 90% ([4]; Shigella spp., 40 strains): 16 µg/mL (≈ 18.9 µM)

CC[C@H]1OC(=O)[C@H](C)[C@@H](O[C@H]2C[C@@](C)(OC)[C@@H](O)[C@H](C)O2)[C@H](C)[C@@H](O[C@@H]2O[C@H](C)C[C@H](N(C)C)[C@H]2O)[C@](C)(OC)C[C@@H](C)C(=O)[C@H](C)[C@@H](O)[C@]1(C)O [CLR, clarithromycin]
Emax, Δ log10 CFU at 24 h compared to the post-phagocytosis inoculum [1]: −0.71 Δ log10 CFU | MIC50 [2]: 0.015 µg/mL (≈ 0.0201 µM) | MIC90 [2]: > 16 µg/mL | % by category resistant ([5]; CLSI 2008 criteria): 8.7% | % by category susceptible ([5]; CLSI 2008 criteria): 91.3% | MIC50 ([5]; Helicobacter pylori): 0.03 µg/mL (≈ 0.0401 µM) | MIC90 ([5]; Helicobacter pylori): 0.12 µg/mL (≈ 0.16 µM) | MIC50 [5, 10]: ≤ 0.015 µg/mL | MIC Range (Etest) ([9]; C. jejuni, 20 strains): 1 to 8 µg/mL | MIC Range (Etest) ([9]; C. jejuni, 20 strains, listed as CLA): 1-8 (CLA) μg/ml | MIC50 [9]: 2 µg/mL (≈ 2.67 µM) | MIC90 [9]: 4 µg/mL (≈ 5.35 µM) | MIC50 ([4]; Shigella spp., 40 strains): > 16 µg/mL | MIC90 ([4]; Shigella spp., 40 strains): > 16 µg/mL

C=CC1=C(C(=O)O)N2C(=O)[C@@H](NC(=O)/C(=N\O)c3csc(N)n3)[C@H]2SC1 [Cefdinir]
% by category resistant [2]: 0.0% | % by category susceptible [2]: 100.00% | MIC50 [2]: 0.25 µg/mL (≈ 0.632 µM) | MIC90 [2]: 0.5 µg/mL (≈ 1.26 µM) | % by category resistant [4]: 0.0% | % by category susceptible [4]: 100.0% | MIC50 ([4]; Shigella spp., 40 strains): 0.25 µg/mL (≈ 0.632 µM) | MIC90 ([4]; Shigella spp., 40 strains): 0.25 µg/mL (≈ 0.632 µM)

CCC[C@@H]1C[C@@H](C(=O)N[C@@H]([C@H]2O[C@H](SC)[C@H](O)[C@@H](O)[C@H]2O)[C@H](C)Cl)N(C)C1 [Clindamycin]
MIC50 ([4]; Shigella spp., 40 strains): > 4 µg/mL | MIC90 ([4]; Shigella spp., 40 strains): > 4 µg/mL

CC[C@H]1OC(=O)[C@H](C)[C@@H](O[C@H]2C[C@@](C)(OC)[C@@H](O)[C@H](C)O2)[C@H](C)[C@@H](O[C@@H]2O[C@H](C)C[C@H](N(C)C)[C@H]2O)[C@](C)(O)C[C@@H](C)C(=O)[C@H](C)[C@@H](O)[C@]1(C)O [Erythromycin]
MIC50 [2]: > 4 µg/mL | MIC90 [2]: > 4 µg/mL | MIC Range (Etest) ([9]; C. jejuni, 20 strains): 0.5 to 4 µg/mL | MIC50 [9]: 2 µg/mL (≈ 2.73 µM) | MIC90 [9]: 4 µg/mL (≈ 5.45 µM) | MIC50 ([4]; Shigella spp., 40 strains): > 4 µg/mL | MIC90 ([4]; Shigella spp., 40 strains): > 4 µg/mL

C[C@H]1COc2c(N3CCN(C)CC3)c(F)cc3c(=O)c(C(=O)O)cn1c23 [Levofloxacin, levofloxacin]
% by category resistant [2]: 0.0% | % by category susceptible [2]: 95.0% | MIC50 [2]: ≤ 0.12 µg/mL | MIC90 [2]: 1 µg/mL (≈ 2.77 µM) | % by category resistant [4]: 0.0% | % by category susceptible [4]: 100.0% | MIC50 ([4]; Shigella spp., 40 strains): ≤ 0.12 µg/mL | MIC90 ([4]; Shigella spp., 40 strains): ≤ 0.12 µg/mL

Cc1ncc([N+](=O)[O-])n1CCO [Metronidazole]
MIC Range (Etest) ([5]; H. pylori, eight strains, Etest): 0.06 to 64 µg/mL | MIC50 [5, 10]: 0.5 µg/mL (≈ 2.92 µM)

CC[C@H]1OC(=O)[C@H](C)C(=O)[C@H](C)[C@@H](O[C@@H]2O[C@H](C)C[C@H](N(C)C)[C@H]2O)[C@](C)(OC)C[C@@H](C)C(=O)[C@H](C)[C@H]2N(CCCCn3cnc(-c4cccnc4)c3)C(=O)O[C@]12C [TEL, telithromycin]
Emax, Δ log10 CFU at 24 h compared to the post-phagocytosis inoculum [1]: −0.63 Δ log10 CFU | MIC50 [2]: 8 µg/mL (≈ 9.85 µM) | MIC90 [2]: > 16 µg/mL | MIC50 ([4]; Shigella spp., 40 strains): 16 µg/mL (≈ 19.7 µM) | MIC90 ([4]; Shigella spp., 40 strains): 16 µg/mL (≈ 19.7 µM)

CN(C)[C@@H]1C(O)=C(C(N)=O)C(=O)[C@@]2(O)C(O)=C3C(=O)c4c(O)cccc4[C@@](C)(O)[C@H]3C[C@@H]12 [Tetracycline]
MIC50 [5, 10]: 0.06 µg/mL (≈ 0.135 µM) | MIC Range (Etest) ([9]; C. jejuni, 20 strains): 0.06 to 256 µg/mL | MIC50 [9]: 64 µg/mL (≈ 144 µM) | MIC90 [9]: > 256 µg/mL

Amoxicillin-clavulanate
% by category resistant [2]: 0.0% | % by category susceptible [2]: 95.0% | MIC 50% ([2]; 20 strains): 2 µg/mL | MIC 90% ([2]; 20 strains): 8 µg/mL | % by category resistant [4]: 0.0% | % by category susceptible [4]: 72.5% | MIC 50% ([4]; Shigella spp., 40 strains): 8 µg/mL | MIC 90% ([4]; Shigella spp., 40 strains): >8 µg/mL

Quinupristin-dalfopristin
MIC 50% ([2]; 20 strains): >4 µg/mL | MIC 90% ([2]; 20 strains): >4 µg/mL | MIC 50% ([4]; Shigella spp., 40 strains): >4 µg/mL | MIC 90% ([4]; Shigella spp., 40 strains): >4 µg/mL | MIC Range ([4]; Shigella spp., 40 strains): >4 µg/mL

Trimethoprim-sulfamethoxazole [Trim-sulfa]
% by category resistant [2]: 0.0% | % by category susceptible [2]: 100.00% | MIC 50% ([2]; 20 strains): ≦0.25 μg/ml | MIC 90% ([2]; 20 strains): ≦0.25 μg/ml | MIC Range ([2]; 20 strains): ≦0.25 μg/ml | % by category resistant [4]: 62.5% | % by category susceptible [4]: 37.5% | MIC 50% ([4]; Shigella spp., 40 strains): >4 µg/mL | MIC 90% ([4]; Shigella spp., 40 strains): >4 µg/mL
